Test results reported in patent US20240082275A1, “Pharmaceutical formulations comprising 5-Chloro-N4-[2-(dimethylphosphoryl)phenyl]-N2-{2-methoxy-4-[4-(4-methylpiperazin-1-yl)piperidin-1-yl]phenyl}pyrimidine-2,4-diamine” (Takeda Pharmaceutical Company Limited, priority 2017, published 2024).

Assay: Solid-state properties of brigatinib Form A (hygroscopicity, polymorphic conversion)
Type: physicochemical

hygroscopicity: non-hygroscopic
Structure (SMILES): COc1cc(N2CCC(N3CCN(C)CC3)CC2)ccc1Nc1ncc(Cl)c(Nc2ccccc2P(C)(C)=O)n1 [Brigatinib Form A, 5-chloro-N4-[2-(dimethylphosphoryl)phenyl]-N2-{2-methoxy-4-[4-(4-methylpiperazin-1-yl)piperidin-1-yl]phenyl}pyrimidine-2,4-diamine]
conversion to other polymorphic forms (solvent-mediated or solid-solid transitions, elevated temperature, elevated humidity, mechanical pressure or grinding): does not convert to other polymorphic forms
